# Laboratory results reported in patent publication US10874685B2, “Pancreatic cancer therapy and diagnosis” (Deutsches Krebsforschungszentrum Stiftung des Öffentlichen …, priority 2014, dated 2020).
# Entries after “also recorded” stand apart in the source; their conditions may differ.
# Key:
# MIAPaCa-2 cells = assay: Orthotopic pancreatic tumor mouse model treated with DRD2 antagonists; type: in vivo, mice; details: compared to vehicle
# Method: Two million MIAPaCa-2 cells were resuspended in 10 μL Matrigel (BD Biosciences, San Jose, Calif.) were orthotopically implanted into the tail of the pancreas of 6-week-old Nod scid gamma animals (Jackson Labs, Bar Harbor, Me.) (day 1). When tumors were palpable (day 27), mice were randomized into 2 groups (n=7 in control group and n=9 in haloperidol group) and injected intraperitoneally with either haloperidol (10 mg/kg) or solvent (dimethylsulfoxide [DMSO] control group) for 12 days. The experiment was terminated when control mice appeared moribund. Weight of the animal and final tumor weight and volume were measured.
# [1] = test system: SREBP1, SREBP2, INSIG1, HMGCR, LDLR mRNA; assay: qRT-PCR of cholesterol biosynthesis genes in PDAC cell lines; type: cell-based, human; details: qRT-PCR 18 hours post-treatment; relative to actin
# Excerpt: (§1) Measurement of 2-deoxy-D-glucose uptake shown on the y-axis relative to control by PDAC cell lines (MIAPaCa2, left; PANC-1, middle; AsPC1, right) treated with DMSO (C), pimozide (P) or haloperidol (H) (FIG. 10A). Abundance of free cholesterol, as measured by staining with filipin, after treatment with haloperidol (H) or pimozide (P) in PDAC cell lines (MIAPaCa2, left; PANC-1, middle; AsPC1, right) (FIG. 10B top). Representative micrographs of filipin-labelled cholesterol. PDAC (MIAPaCa2, top; PANC-1, middle; AsPC1, bottom) cells were seeded for 24 hours and treated with 10 μM haloperidol (H) or pimozide (P) or DMSO for 18 hours (FIG. 10B bottom). Red-fluorescence represents propidium iodide (PI)-stained nuclei and blue-fluorescence represents filipin-stained cholesterol. mRNA levels of genes relative to R-actin shown on the y-axis involved in cholesterol biosynthesis (from left to right: SREBP1, SREBP2, INSIG1, HMGCR, LDLR) measured by qRT-PCR 18 hours post-treatment with DMSO (C), haloperidol (H) or pimozide (P) in three PDAC cell lines (MIAPaCa2, top; PANC-1, middle; AsPC1, bottom) (FIG. 10C).
# For mice xenograft tissue samples and cultured cells, the miRNeasy kit (Qiagen, Valencia, Calif.) was used to extract total RNA. […] Quantification values were calculated according to a standard curve method created from a dilution series. […]
# [2] = test system: MIAPaCa-2, PANC-1 and AsPC-1 cells; assay: Glucose uptake measurement (labelled 2-DG) in PDAC cell lines; type: cell-based, human; details: all three cell lines; relative to DMSO control
# Excerpt: as §1
# The induction effect of pimozide or haloperidol on labeled 2-DG uptake in cancer cells were determined from measurement of the fluorescence intensity of cell lysates. […]
# [3] = test system: MIAPaCa-2, PANC-1 and AsPC-1 cells; assay: Free cholesterol measurement (Filipin staining) in PDAC cell lines; type: cell-based, human; details: 10 μM, 18 hours; vs DMSO
# Excerpt: as §1
# Cancer cells were seeded for 24 hours and treated with pimozide, haloperidol or DMSO for 18 hours. The cells were fixed with paraformaldehyde, stained with Filipin™ and propidium iodide (PI), and photographed. Filipin™ is a fluorescent polyene antibiotic that binds to free cholesterol. […]
# [4] = test system: PANC-1, MIAPaCa-2 and AsPC-1 cell lines; assay: PDAC cell line growth curves under combination therapy; type: cell-based, human; details: over time
# Excerpt: FIGS. 11A and 11B show PDAC cell line growth curves following combination therapy with DRD2 antagonists, 2-deoxy-D-glucose, and atorvastatin. Percentage cell growth shown on the y-axis following treatment with control (blue line), pimozide (Pim, gray line), atorvastatin and 2-deoxy-D-glucose (ATR+2-DG, red line) and combination of Pim and ATR+2-DG (green line) over time in PANC-1 (top), MIAPaCa-2 (middle) and AsPC-1 (bottom) cell lines (FIG. 11A). Haloperidol (Hal, gray line) is used as the DRD2 antagonist for use alone or in combination with ATR+2-DG as described in A (FIG. 11B). Dosage are indicated for each cell line.
# PDAC cell proliferation was measured during pharmacological inhibition of DRD2 alone and in combination with blockade of glycolysis and cholesterol synthesis. To suppress glycolysis, 2-DG, a glucose analog which is a competitor inhibitor of glucose metabolism, was used. To inhibit cholesterol synthesis, atorvastatin (ATR), a competitive inhibitor of 3-hydroxy-3-methylglutaryl-coenzyme A (HMG-CoA) reductase in the cholesterol biosynthesis pathway was used.
# [5] = test system: KPC-023, KPC-01 and KPC-LM pancreatic cancer cell lines; assay: Viability of primary and metastatic pancreatic cancer cell lines isolated from KPC mice; type: cell-based; details: primary (KPC-023, KPC-01) and metastatic (KPC-LM) lines
# [6] = test system: locally advanced, unresectable, or metastatic pancreatic adenocarcinoma; details: patients with locally advanced; cited from earlier work
# MIAPaCa-2 xenograft = assay: Combination therapy in NSG mice, MIAPaCa-2 xenograft model; type: in vivo; details: i.p. 16 days; pimozide 10 mg/kg daily; gemcitabine 20 mg/kg every 4 days
# Excerpt: Tumor volumes normalized to initial measurement shown in the y-axis every four days following treatment with either vehicle (gray line), the chemotherapeutic gemcitabine (green line), a combination therapy of 2-deoxy-D-glucose, atorvastatin and pimozide (2DG+ATR+Pim, redline), or a combination therapy of 2DG+ATR+Pim and gemcitabine (2DG+ATR+Pim+Gem, red dashed line) (FIG. 12A). […] Tumor weight (FIG. 12C) and volume of samples (FIG. 12D) harvested following treatment with, from left to right, control (Vehicle), 2DG+ATR, Pim alone, Pim+2DG+ATR, Gem alone, 2DG+ATR+Gem, Pim+Gem, or Pim+2DG+ATR+Gem.
# NOD severe combined immunodeficiency gamma (NSG) mice were subcutaneously injected in the right flank with five million MIAPaCa-2 cells. Once tumors were detectable (200 mm^3), mice were randomized into 8 groups (5 in each group) and treated through intraperitoneal injection as indicated for 16 days. All drugs were given every day whereas gemcitabine was given every 4 days, alone or in combination. Experiment was terminated when control animals became moribund. The growth of tumors was measured every 4 days. Tumors were harvested and photographed. Tumor weights and volumes were measured.
# The efficacy of the combined treatment approach was investigated using a MIAPaCa-2 xenograft model of pancreatic cancer.
# pituitary tumor cells = details: after treatment; cited from earlier work
# [7] = test system: pancreatic cancer cell lines (PANC-1, CFPAC-1, CAPAN-1, MIAPaCa-2, BXPC-3); assay: Sulforhodamine B (SRB) cytotoxicity assay on pancreatic cancer cell lines; type: cell-based, human; details: increasing concentration, 72 h
# Method: PANC-1, CFPAC-1, CAPAN-1, MIAPaCa-2, BXPC-3 and fibroblast cells were seeded for 24 h and were exposed to increasing concentration of Pimozide and vehicle for 72 h (FIG. 3A). The same procedure was followed for treatment of cancer cell lines with L741 (FIG. 3B). Cell viability was characterized using a SRB assay. Values are the mean+/−SD of six independent experiments.
# Five pancreatic ductal cancer cell lines with various degree of differentiation were obtained from American Type Culture Collection (Rockville, USA) and Normal Human Dermal Fibroblasts (NHDF) obtained from PromoCell. BXPC-3 (moderately differentiated) as well as poorly differentiated human pancreatic cancer cell lines, PANC-1 and MIAPaCa-2, have been established from primary tumor. AsPC-1, CAPAN-1 and CFPAC-1 which represent well differentiated cell lines was isolated from ascites and liver metastasis of pancreas adenocarcinoma. All cell lines contain mutation in P53 whereas K-ras mutation reported in all with the exception of BxPc3. BRCA2 mutation just reported in CAPAN-1 cells.
# Sulforhodamine B sodium salt (sigma) was used to assess cell viability and IC50 determination of pancreatic cancer cells. […] Cell viability was specified by using plate reader (TECAN) with measuring of absorbance at 570 and 650 nm (background) in treated or untreated 96 well plate.
# PANC-1 cells = assay: Wound healing (scratching) assay for cell migration; type: cell-based, human; details: PANC-1, increasing concentrations, 10 h
# Method: PANC-1 cells were plated in the chamber were already attached in 12 well plate and allowed to grow for 24 h. Then, a wound was made in the confluent monolayer by removing the chamber. Cells were exposed to increasing concentration of Pimozide (FIG. 6A) or L741 (FIG. 6B) and vehicle for 10 h. Wound gap closure was measured for each drug concentration by comparing the gap at time 0 h to the one at the time 10 h when the gap closed in negative control and normalized to untreated condition.
# PANC-1 cells were seeded into the 35 mm-dish culture-silicon Insert frames from Ibidi where already attached to the 6 well culture plate. When 96-98% confluency was achieved, the insert frames were removed using sterile forceps to reach cell free gap. To create a reference point for subsequent measurements, three different part of the gap was marked on the underside of the plastic. Floating cells and cell debris were washed using PBS, relative culture medium was added to each wells and migration distance was photographed using a Zeiss Axiovert 24 light microscope at zero time in the marked areas. Afterward, the wells were treated by addition of DMSO as control and different increasing concentration of Pim and L741. Plates were then placed into the incubator and the cells were allowed to migrate until the time when the gap for the […] closed (t time). Images were taken from the marked areas again. This assay was performed employing various concentrations of drugs at which maximum 5% viability inhibition was observed after 10 h treatment.
structure (smiles),measurement,setting,value
O=C(CCCN1CCC(O)(c2ccc(Cl)cc2)CC1)c1ccc(F)cc1 [haloperidol],metastatic dissemination,MIAPaCa-2 cells,"reduces tumor volume, metastasis"
same,tumor volume,MIAPaCa-2 cells; haloperidol 10 mg/kg intraperitoneally for 12 days,reduces tumor volume
same,expression of genes involved in lipogenesis / cholesterol biosynthesis,[1],inducing expression of genes involved in lipogenesis
same,glucose uptake (intracellular labelled 2-deoxy-D-glucose),[2],elevated uptake of glucose; also recorded: enhanced glucose and cholesterol uptake
same,abundance of free cholesterol (Filipin staining),[3],increased the abundance of free cholesterol; also recorded: enhanced glucose and cholesterol uptake
same,cell growth,[4],reduced cell growth
same,viability of KPC mouse pancreatic cancer cell lines,[5],sensitive; also recorded: Dose-dependent effects
"Nc1ccn([C@@H]2O[C@H](CO)[C@@H](O)C2(F)F)c(=O)n1 [gemcitabine, 4-amino-1-[(2R,4R,5R)-3,3-difluoro-4-hydroxy-5-(hydroxymethyl)oxolan-2-yl]pyrimidin-2-one]",1-year survival rate,[6],21%
same,median overall survival (OS),[6],6 months
same,tumor volume,MIAPaCa-2 xenograft,reduced tumor weight and volume
same,tumor weight,MIAPaCa-2 xenograft,reduced tumor weight
NCCc1ccc(O)c(O)c1 [dopamine],cancer cell viability,pituitary tumor cells,decreased significantly
"OC1(c2ccc(Cl)cc2)CCN(Cc2c[nH]c3ccccc23)CC1 [L-741,626]",cell viability of pancreatic cancer cell lines,[7],Specific toxicity effect; also recorded: dose dependent toxicity effect
same,tumor cell migration (wound gap closure),PANC-1 cells,tumor cell migration was affected
same,tumor cell migration (wound gap closure),PANC-1 cells; listed as L741,dose dependent inhibitory effect
same,viability of KPC mouse pancreatic cancer cell lines,[5],sensitive; also recorded: Dose-dependent effects
